# Test results published in patent publication US20230310472A1, “Stable Topical Formulations of 1(R)-4-(5-(4-Methoxy-3-Propoxphenyl)Pyridin-3-YL)-1,2-OX-Aborolan-2-OL” (Pfizer Inc., priority 2020, published 2023).
# Experiments:
# Assay type in all cases: in vitro ADME
# dog hepatocytes = assay: In vitro metabolism in hepatocytes; settings: non-radiolabeled
# Description: (§1) An assessment of the metabolism of non-radiolabeled PF-07038124 was 5 conducted in vitro using mouse, rat, dog, monkey and human hepatocytes. […] The primary routes of metabolism were hydrolysis/oxidation of the oxaborole ring to yield the diol (PF-07086920), glucuronidation of the pyridyl nitrogen, hydroxylation on the propyl group of the phenoxypropyl moiety, and demethylation of the methoxy group (shown below). All metabolites detected in mouse, rat, dog, and monkey hepatocytes were also observed in human hepatocytes.
# human hepatocytes = assay: In vitro metabolism in hepatocytes; settings: non-radiolabeled
# Description: as §1
# monkey hepatocytes = assay: In vitro metabolism in hepatocytes; settings: non-radiolabeled
# Description: as §1
# mouse hepatocytes = assay: In vitro metabolism in hepatocytes; settings: non-radiolabeled
# Description: as §1
# rat hepatocytes = assay: In vitro metabolism in hepatocytes; settings: non-radiolabeled
# Description: as §1
# [1] = Stability on incubation in blood (LC-MS/MS); settings: for concentration of PF-07038124 following incubation / concentration of PF-07086920 following incubation of PF-07038124: 1 hour at 1 μM; for chemical stability in blood: oxidation of the oxaborole ring to diol
# Procedure: One of the major metabolic pathways in humans was formation of the oxaborole ring opened molecule, PF-07086920. […] Following incubation for 1 hour at 1 μM in human and rat blood, the concentration of PF-07038124 declined whereas the concentration of PF-07086920 increased in both human and rat blood as determined by liquid chromatography-tandem mass spectrometry. In addition to being a metabolite, PF-07086920 was also determined to be a degradant in the formulations comprising PF-07038124.
Structure (SMILES),metabolism of PF-07038124 in hepatocytes (dog hepatocytes),metabolism of PF-07038124 in hepatocytes (human hepatocytes),metabolism of PF-07038124 in hepatocytes (monkey hepatocytes),metabolism of PF-07038124 in hepatocytes (mouse hepatocytes),metabolism of PF-07038124 in hepatocytes (rat hepatocytes),concentration of PF-07038124 following incubation ([1]; human blood),chemical stability in blood ([1]; human blood),concentration of PF-07038124 following incubation ([1]; rat blood),chemical stability in blood ([1]; rat blood),concentration of PF-07086920 following incubation of PF-07038124 ([1]; human blood),concentration of PF-07086920 following incubation of PF-07038124 ([1]; rat blood)
"CCCOc1cc(-c2cncc([C@@H]3COB(O)C3)c2)ccc1OC [PF-07038124, (R)-4-(5-(4-methoxy-3-propoxyphenyl)pyridin-3-yl)-1,2-oxaborolan-2-ol]",Moderate to extensive metabolism,Moderate to extensive metabolism,Moderate to extensive metabolism,Moderate to extensive metabolism,Moderate to extensive metabolism,declined,chemically unstable,declined,chemically unstable,–,–
"CCCOc1cc(-c2cncc(C(CO)CO)c2)ccc1OC [PF-07086920, 2-(5-(4-methoxy-3-propoxyphenyl)pyridin-3-yl)propane-1,3-diol]",–,–,–,–,–,–,–,–,–,increased,increased
